From article PMC9674596, “Origin of acetylcholine antagonism in ELIC, a bacterial pentameric ligand-gated ion channel” (Communications Biology, 2022) come the findings set out here.

What is called EC50 is the midpoint of the concentration-response curve.

The assay addresses T1, wild-type ELIC (Dickeya chrysanthemi, UniProt P0C7B7, INS163G).
T1 construct: expressed in transfected cells; host or cells: Xenopus laevis oocytes injected with cRNA from ELIC-pTLN
Description: Two-electrode voltage clamp, whole-cell currents of wild-type ELIC expressed in Xenopus laevis oocytes. Type of assay: cell-based, Erwinia chrysanthemi. On the procedure: Stage V-VI Xenopus laevis oocytes were isolated[72] and deflocculated enzymatically in ND96 buffer without Ca^2+ (96 mM NaCl, 2 mM KCl, 1 mM MgCl2, 2 mM pyruvate, 5 mM HEPES, pH 7.4), but supplemented with 1 mg/mL collagenase B and 1 mg/mL trypsin inhibitor, for 2 h at room temperature under constant stirring. The deflocculation buffer was then gradually removed by washing the oocytes in ND96 buffer (96 mM NaCl, 2 mM KCl, 1 mM MgCl2, 1 mM CaCl2, 2 mM pyruvate, 5 mM HEPES, pH 7.4) for several iterations. The oocytes were then allowed to stir for an additional hour at room temperature under constant stirring with the buffer being periodically replaced until clear. To obtain optimal receptor expression, individually selected and healthy oocytes were injected with 0.2 ng cRNA for wild-type ELIC and 5 ng cRNA for mutants. Subsequently, oocytes were incubated for one day at 16 °C in ND96^+ buffer (96 mM NaCl, 2 mM KCl, 1 mM MgCl2, 1 mM CaCl2, 2 mM pyruvate, and 5 mM HEPES at pH 7.6). After expression, injected oocytes were placed in a RC-1Z oocyte chamber (Harvard Apparatus; Hamden, CT) containing buffer (pH 7.4) composed of 150 mM NaCl, 0.5 mM BaCl2, 10 mM HEPES, and 1 mM dithiothreitol or 1 µM atropine if cysteamine, or ACh, was used in the experiment, respectively. The presence of the reducing agent, dithiothreitol, ensures that the sulfhydryl group of cysteamine remains reduced.
Once in the oocyte chamber, whole-cell currents were recorded using a two-electrode voltage-clamp apparatus (OC-725C oocyte clamp; Harvard Apparatus), with a buffer flow rate of 5–10 mL min^−1. Currents in response to various additions of cysteamine and/or ACh, were measured with the transmembrane voltage clamped at −60 mV. Dose response curves for each wild-type and mutant ELIC were acquired from at least five oocytes in two different batches.
For identifying the half maximal effective concentration (EC50) and apparent Hill coefficient (nH) of cysteamine, dose response curves were created by taking the magnitude of each cysteamine-activated peak current (I) and normalizing this value to the maximal peak current in the presence of excess agonist (Imax). The log (base 10) cysteamine concentration in molar was then plotted on the x-axis against the fractional response (I/Imax) on the y-axis. The data was fitted using nonlinear regression with a variable slope sigmoidal dose response (Eq. 1, below) in GraphPad Prism (v.8.0.0).1 y=1/1+10^nH^LogEC50−X
Individual EC50 and Hill coefficients were averaged for each oocyte to derive a mean ± standard deviation. […] […] The log (base 10) ACh concentration was then plotted on the x-axis against the fractional response (I/Io) on the y-axis. Subsequent steps were the same as above for deriving a cysteamine EC50 and Hill coefficient. The individual IC50 and Hill coefficients were averaged for each oocyte to derive a mean ± one standard deviation. Lastly, to identify four normalized response values, cysteamine at the 10% maximal effective concentration (EC10), 20% maximal effective concentration (EC20), EC50 and 90% maximal effective concentration (EC90), was applied in the presence and absence of 25 mM ACh. The cysteamine-activated peak current with 25 mM ACh, was normalized to the cysteamine-activated peak current without ACh.
Background: Two-electrode voltage clamp is typically applied to oocytes expressing channels or transporters.

Take `NCCS` [cysteamine]: where the note is “WT”, the “Cysteamine concentration corresponding to EC10” value stood at 200 µM and the “Cysteamine concentration corresponding to EC20” value was 300 µM. Further, the “Activation Hill coefficient” value (WT ELIC, agonist activation) was 2.6 ± 0.4. Besides, the EC50 (WT ELIC, agonist-activated peak current, −60 mV, mean ± s.d., read-out: Activation EC50) was 600 ± 100 µM. Also, the “Peak current on application of ligand alone” value (WT, ACh 0.5 mM to 50 mM, followed by 5 mM cysteamine) is given as “robust peak current”. Besides, the EC90 (WT, read-out: Cysteamine concentration corresponding to EC90) amounted to 1300 µM.
